Data reported in patent publication US20090181981A1, “CRYSTALLINE (R)-2-(4-CYCLOPROPANESULPHONYL-PHENYL)-N-PYRAZIN-2-YL-3-(TETRAHYDROPYRAN-4-YL)-PROPIONAMIDE” (priority 2008, published 2009).
One block for each compound: values may come before it.

Legend:
[1] = Glass transition temperature / thermal stability of the solid; type: physicochemical; conditions: as evidenced by low glass transition temperature
Text: (§1) Glucokinase is important in regulation of plasma glucose levels. It is thought that GK activators increase a body's sensitivity to glucose. Consequently, GK activators are effective in the treatment of hyperglycemia, insulin resistance, and diabetes, particularly in type II diabetes. […] (WO2004/072031) However, amorphous CPTP is not suitable for pharmaceutically elegant drug formulation.

[2] = Hygroscopicity and storage at ambient temperature; type: physicochemical
Procedure: as §1
(§2) Crystalline CPTP has an onset of melting as measured by differential scanning calorimetry of 156° C., which renders it acceptable for standard industrial processes such as milling. […]

Glucokinase (GK) [3] = target: T1, Glucokinase (GK) (Homo sapiens, UniProt P35557); conditions: WO2004/072031; cited from earlier work
T1 sequence (P35557 1-465): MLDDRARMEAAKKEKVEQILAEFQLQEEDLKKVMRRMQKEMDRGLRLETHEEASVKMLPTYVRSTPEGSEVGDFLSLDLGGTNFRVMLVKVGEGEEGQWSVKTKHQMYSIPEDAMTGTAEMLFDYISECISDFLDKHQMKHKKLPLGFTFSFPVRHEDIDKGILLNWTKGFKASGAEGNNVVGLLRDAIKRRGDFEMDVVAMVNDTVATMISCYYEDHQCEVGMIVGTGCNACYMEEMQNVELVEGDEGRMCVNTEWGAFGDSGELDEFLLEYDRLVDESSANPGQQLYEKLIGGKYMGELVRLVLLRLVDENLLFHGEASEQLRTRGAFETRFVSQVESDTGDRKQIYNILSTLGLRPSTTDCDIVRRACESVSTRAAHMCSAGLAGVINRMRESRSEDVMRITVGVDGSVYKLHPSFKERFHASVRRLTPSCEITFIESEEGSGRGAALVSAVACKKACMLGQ

Glucokinase (GK) [4] = conditions: WO2004/072031; cited from earlier work
[5] = pKa by photometric titration; type: physicochemical; conditions: determined by photometric titration
Text: Salt formation was also extensively investigated. However, formation of isolable CPTP salts is hampered by the low pK (pKa1=0.17, determined by photometric titration) of CPTP.

[6] = Crystalline CPTP stability summary (storage at controlled temperature and relative humidity); type: physicochemical; conditions: for Chiral Purity: chiral HPLC area percent; for Achiral Purity: total impurities by achiral HPLC
Procedure: as §2

[7] = 25° C. 60% relative humidity, 1 month
[8] = 25° C. 60% relative humidity, 3 months
[9] = 25° C. 60% relative humidity, Initial
[10] = 40° C. 60% relative humidity, 1 Month
[11] = 40° C. 60% relative humidity, 3 Months
[12] = 40° C. 60% relative humidity, Initial

thermal stability [1]: limited thermal stability
hygroscopicity [2]: is hygroscopic
SMILES: O=C(Nc1cnccn1)[C@H](CC1CCOCC1)c1ccc(S(=O)(=O)C2CC2)cc1 [Amorphous CPTP, R-2-(4-cyclopropanesulfonyl-phenyl)-N-pyrazin-2-yl-3-(tetrahydropyran-4-yl)-propionamide]
activity in in-vitro GK assay (Glucokinase (GK) [3]): active
activity in in-vivo GK assay (Glucokinase (GK) [4]): active

pKa1 [5]: 0.17
SMILES: O=C(Nc1cnccn1)[C@H](CC1CCOCC1)c1ccc(S(=O)(=O)C2CC2)cc1 [CPTP, R-2-(4-cyclopropanesulfonyl-phenyl)-N-pyrazin-2-yl-3-(tetrahydropyran-4-yl)-propionamide]

degradation on storage ([2]; stored at ambient temperature): minor or no degradation
hygroscopicity / water uptake ([2]; stored at ambient temperature): remains anhydrous and is not hygroscopic
Appearance [6, 7]: White
Assay [6, 7]: 99.9 % w/w
Total Impurities [6, 7]: 0.18%
Water [6, 7]: <0.10 % w/w
Appearance [6, 8]: White
Assay [6, 8]: 99.6 % w/w
Total Impurities [6, 8]: 0.23%
Water [6, 8]: <0.01 % w/w
Appearance [6, 9]: White
Assay [6, 9]: 100.3 % w/w
Total Impurities [6, 9]: 0.25%
Water [6, 9]: <0.07 % w/w
Appearance [6, 10]: White
Assay [6, 10]: 100.1 % w/w
Total Impurities [6, 10]: 0.2%
Water [6, 10]: <0.10 % w/w
Appearance [6, 11]: White
Assay [6, 11]: 99.3 % w/w
Total Impurities [6, 11]: 0.25%
Water [6, 11]: <0.01 % w/w
Appearance [6, 12]: White
Assay [6, 12]: 100.3 % w/w
Total Impurities [6, 12]: 0.25%
Water [6, 12]: <0.07 % w/w
Chiral Purity [6, 7]: 100 % a/a
Chiral Purity [6, 8]: 100 % a/a
Chiral Purity [6, 9]: 100 % a/a
Chiral Purity [6, 10]: 100 % a/a
Chiral Purity [6, 11]: 100 % a/a
Chiral Purity [6, 12]: 100 % a/a
Achiral Purity [6, 7]: 0.18 % a/a
Achiral Purity [6, 8]: 0.23 % a/a
Achiral Purity [6, 9]: 0.25 % a/a
Achiral Purity [6, 10]: 0.20 % a/a
Achiral Purity [6, 11]: 0.25 % a/a
Achiral Purity [6, 12]: 0.25 % a/a
SMILES: O=C(Nc1cnccn1)[C@H](CC1CCOCC1)c1ccc(S(=O)(=O)C2CC2)cc1 [Crystalline CPTP, R-2-(4-cyclopropanesulphonyl-phenyl)-N-pyrazin-2-yl-3-(tetrahydropyran-4-yl)-propionamide]
